Each structure is given as a SMILES string.

For 30 compounds, IC50 results are on record in US9073830B2 (Hyundai Pharm Co., Ltd., priority 2011, dated 2015).

Test [1] addresses T1, human 11β-HSD1 (Homo sapiens, UniProt P28845).
T1 construct: 100 ug/ml human/mouse liver microsomes; from tissue; host or cells: human liver microsomes
Briefly: Enzyme activity analysis on human 11β-HSD1 (HTRF cortisol, liver microsomes). Type of test: biochemical. The settings on record: first value of cell. The method, then:
(§1) After culturing at 37° C. for 2 hours, 5 μl of cryptate-labeled anti-cortisol antibody and 5 μl of d2-labeled cortisol were added thereto. After further culturing at room temperature for 2 hours, a homogeneous time-resolved fluorescence (HTRF, Cisbio) signal was measured. From each analysis, based on a standard curve calculated using cortisols of several known concentrations, an amount of produced cortisol was tested.
(§2) While an amount of cortisol, produced without the compound, was used as a control, an inhibition percentage by the test compound, at each concentration, was calculated. By using an inhibition curve calculated by coordinates of inhibition percentage to test compound concentration, an IC50 value of the compound on 11β-HSD1 was obtained.

Test [2] deals with T2, mouse 11β-HSD1 (Mus musculus, UniProt P50172).
T2 construct: 100 ug/ml human/mouse liver microsomes; from tissue; host or cells: mouse liver microsomes
T2 sequence (P50172 whole entry): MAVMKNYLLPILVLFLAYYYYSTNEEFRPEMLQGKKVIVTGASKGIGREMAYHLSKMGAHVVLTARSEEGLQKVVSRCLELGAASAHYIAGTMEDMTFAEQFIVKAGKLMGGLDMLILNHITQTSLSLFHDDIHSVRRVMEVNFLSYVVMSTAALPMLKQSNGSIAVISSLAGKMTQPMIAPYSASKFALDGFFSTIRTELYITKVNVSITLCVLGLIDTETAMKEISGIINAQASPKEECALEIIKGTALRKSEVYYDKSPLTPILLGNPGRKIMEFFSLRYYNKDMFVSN
Kind of test: Enzyme activity analysis on mouse 11β-HSD1 (HTRF cortisol, liver microsomes). Type of test: biochemical. The settings on record: second value of cell. On the procedure:
as §1, §2

T1 sequence (P28845 whole entry): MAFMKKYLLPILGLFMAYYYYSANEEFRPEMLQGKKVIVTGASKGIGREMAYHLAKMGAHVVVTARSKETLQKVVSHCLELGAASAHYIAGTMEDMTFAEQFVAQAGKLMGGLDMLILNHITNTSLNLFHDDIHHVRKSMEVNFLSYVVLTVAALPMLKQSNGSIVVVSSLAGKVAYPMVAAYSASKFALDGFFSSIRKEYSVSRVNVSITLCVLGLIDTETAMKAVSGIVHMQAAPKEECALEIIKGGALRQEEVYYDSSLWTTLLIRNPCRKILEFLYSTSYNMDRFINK

With `NC(=O)C12CC3CC(C1)C(NC(=O)C1(NS(=O)(=O)c4ccccc4[N+](=O)[O-])CCCC1)C(C3)C2` (stereo not drawn) [compound 173, N-4-(1-(2-nitrophenylsulfonamido)cyclopentanecarboxyamido)adamantane-1-carboxyamide], the IC50 in test [1] is 0.014 µM; in test [2] it was 0.038 µM.
The corresponding values for `NC(=O)C12CC3CC(C1)C(NC(=O)C1(NS(=O)(=O)c4ccc([N+](=O)[O-])c(C(F)(F)F)c4)CCC1)C(C3)C2` (stereo not drawn) [compound 147, N-4-(1-(3-trifluoromethyl-4-nitrophenylsulfonamido)cyclobutanecarboxyamido)adamantane-1-carboxyamide] are 1.3 µM and 0.505 µM.
The corresponding values for `NC(=O)C12CC3CC(C1)C(NC(=O)C1(NS(=O)(=O)c4cccc5cccnc45)CCCCC1)C(C3)C2` (stereo not drawn) [compound 182, N-4-(1-(quinoline-8-sulfonamido)cyclohexanecarboxyamido)adamantane-1-carboxyamide] are 0.018 µM and 0.006 µM.
For `CC(C)(NS(=O)(=O)c1ccccc1C#N)C(=O)NC1C2CC3CC1CC(C(N)=O)(C3)C2` (stereo not drawn) [compound 130, 4-[2-(2-cyano-benzenesulfonylamino)-2-methyl-propionylamino]-adamantane-1-carboxylic acid amide], the IC50 in test [1] is 0.078 µM; in test [2], 0.405 µM.
Consider `CC(C)(NS(=O)(=O)c1cccc2cccnc12)C(=O)NC1C2CC3CC1CC(O)(C3)C2` (stereo not drawn) [compound 75, N-(5-hydroxyadamantane-2-yl)-2-methyl-2-(8-quinolinesulfonamido)propanamide], for which the IC50 in test [1] worked out at 0.006 µM; in test [2] it was 0.005 µM.
In the case of `CC(C)(NS(=O)(=O)Cc1ccc(C(F)(F)F)cc1)C(=O)NC1C2CC3CC(C2)CC1C3` (stereo not drawn) [compound 36, N-(adamantane-2-yl)-2-methyl-2-((4-trifluoromethylphenyl)methylsulfonamido)propanamide], the IC50 in test [1] was 0.04 µM; in test [2], over 2.5 µM.
With `NC(=O)C12CC3CC(C1)C(NC(=O)C1(NS(=O)(=O)c4ccccc4N)CCCCC1)C(C3)C2` (stereo not drawn) [compound 220, N-4-(1-(2-aminophenylsulfonamido)cyclohexanecarboxyamido)adamantane-1-carboxyamide], the results for the IC50 in test [1] and in test [2] were 0.032 µM and 0.266 µM, respectively.
For `Cc1ccc(F)cc1S(=O)(=O)NC(C)(C)C(=O)NC1C2CC3CC1CC(C(N)=O)(C3)C2` (stereo not drawn) [compound 95, N-4-(2-(2-methyl-5-fluorophenylsulfonamido)-2-methylpropanamido)adamantane-1-carboxyamide], the results for the IC50 in test [1] and in test [2] were 0.013 µM and 0.144 µM, respectively.
For `Cc1ccc(F)cc1S(=O)(=O)NC1(C(=O)NC2C3CC4CC2CC(C(N)=O)(C4)C3)CCC1` (stereo not drawn) [compound 165, N-4-(1-(2-methyl-5-fluorophenylsulfonamido)cyclobutanecarboxyamido)adamantane-1-carboxyamide], the IC50 in test [1] turned out to be 0.101 µM; in test [2], 0.29 µM.
`CC(C)(NS(=O)(=O)c1ccc([N+](=O)[O-])c(C(F)(F)F)c1)C(=O)NC1C2CC3CC1CC(C(N)=O)(C3)C2` (stereo not drawn) [compound 113, N-4-(2-(3-trifluoromethyl-4-nitrophenylsulfonamido)-2-methylpropanamido)adamantane-1-carboxyamide]: the IC50 in test [1] was 0.208 µM; in test [2], 0.215 µM.
As for `CC(C)(NS(=O)(=O)c1ccc(Br)cc1)C(=O)NC1C2CC3CC1CC(C(N)=O)(C3)C2` (stereo not drawn) [compound 124], the IC50 in test [1] turned out to be 0.024 µM; in test [2], 0.22 µM.
Turning to `CC(C)(NS(=O)(=O)c1ccc(F)cc1Cl)C(=O)NC1C2CC3CC(C2)CC1C3` (stereo not drawn) [compound 55, N-(adamantane-2-yl)-2-methyl-2-(4-fluoro-2-chlorophenylsulfonamido)propanamide], the IC50 in test [1] was found to be 0.039 µM; in test [2], 0.186 µM.
As to `CC(C)(NS(=O)(=O)c1ccc(Cl)c(Cl)c1Cl)C(=O)NC1C2CC3CC(C2)CC1C3` (stereo not drawn) [compound 51, N-(adamantane-2-yl)-2-methyl-2-(2,3,4-trichlorophenylsulfonamido)propanamide], the IC50 in test [1] stood at 0.183 µM; in test [2] it was 1.3 µM.
On the same counts, the results for `NC(=O)C12CC3CC(C1)C(NC(=O)C1(NS(=O)(=O)c4ccccc4[N+](=O)[O-])CCCCC1)C(C3)C2` (stereo not drawn) [compound 184, N-4-(1-(2-nitrophenylsulfonamido)cyclohexanecarboxyamido)adamantane-1-carboxyamide] are 0.005 µM and 0.104 µM.
For `CC(C)(NS(=O)(=O)c1ccccc1Cl)C(=O)NC1C2CC3CC(C2)CC1C3` (stereo not drawn) [compound 6, N-(adamantane-2-yl)-2-methyl-2-(2-chlorophenylsulfonamido)propanamide], the IC50 in test [1] is 0.02 µM; in test [2], 0.04 µM.
Consider `Cc1c(Cl)cccc1S(=O)(=O)NC(C)(C)C(=O)NC1C2CC3CC(C2)CC1C3` (stereo not drawn) [compound 7, N-(adamantane-2-yl)-2-methyl-2-(3-chloro-2methylphenylsulfonamido)propanamide], for which the figures for the IC50 in test [1] and in test [2] were 0.08 µM and 0.33 µM, respectively.
For `CC(C)(NS(=O)(=O)Cc1ccc(Cl)c(Cl)c1)C(=O)NC1C2CC3CC(C2)CC1C3` (stereo not drawn) [compound 35, N-(adamantane-2-yl)-2-methyl-2-((3,4-dichlorophenyl)methylsulfonamido)propanamide], the IC50 in test [1] and in test [2] was over 2.5 µM throughout.
`CN(C(C)(C)C(=O)NC1C2CC3CC1CC(C(N)=O)(C3)C2)S(=O)(=O)c1ccccc1N` (stereo not drawn) [compound 223, N-4-(2-(2-amino-N-methylphenylsulfonamido)-2-methylpropanamido)adamantane-1-carboxyamide]: the IC50 in test [1] was 0.011 µM; in test [2], 0.023 µM.
Turning to `CN(C(C)(C)C(=O)NC1C2CC3CC(C2)CC1C3)S(=O)(=O)c1ccccc1C(F)(F)F` (stereo not drawn) [compound 201, N-(adamantane-2-yl)-2-(2-trifluoromethyl-N-methylphenylsulfonamido)-2-methylpropan amide], the IC50 in test [1] came to 0.012 µM; in test [2] it was 0.088 µM.
For the compound `CC(=O)c1ccc(S(=O)(=O)NC(C)(C)C(=O)NC2C3CC4CC(C3)CC2C4)cc1` (stereo not drawn) [compound 38, N-(adamantane-2-yl)-2-methyl-2-(4-acetylphenylsulfonamido)propanamide], the IC50 turned out to be 0.829 µM in test [1] and 0.847 µM in test [2].
The corresponding values for `CN(C(C)(C)C(=O)NC1C2CC3CC1CC(C(N)=O)(C3)C2)S(=O)(=O)c1ccccc1Br` (stereo not drawn) [compound 189, N-4-(2-(2-bromo-N-methylphenylsulfonamido)-2-methylpropanamido)adamantane-1-carboxyamide] are 0.018 µM and over 2.5 µM.
Turning to `CN(C(C)(C)C(=O)NC1C2CC3CC1CC(O)(C3)C2)S(=O)(=O)c1ccccc1[N+](=O)[O-]` (stereo not drawn) [compound 205, N-(5-hydroxyadamantane-2-yl)-2-(2-nitro-N-methylphenylsulfonamido)-2-methylpropan amide], the IC50 in test [1] stood at 0.005 µM; in test [2], 0.068 µM.
On to `CC(C)(NS(=O)(=O)c1ccc([N+](=O)[O-])cc1)C(=O)NC1C2CC3CC(C2)CC1C3` (stereo not drawn) [compound 3, N-(adamantane-2-yl)-2-methyl-2-(4-nitrophenylsulfonamido)propanamide], for which the figures for the half-inhibitory concentration (IC50) in test [1] and in test [2] were 1.33 µM and 1.7 µM, respectively.
On the same counts, the results for `CC(C)(NS(=O)(=O)c1ccc(Cl)cc1Cl)C(=O)NC1C2CC3CC1CC(C(N)=O)(C3)C2` (stereo not drawn) [compound 88, N-4-(2-(2,4-dichlorophenylsulfonamido)-2-methylpropanamido)adamantane-1-carboxyamide] are 0.014 µM and 0.056 µM.
On to `CC(C)(NS(=O)(=O)c1ccc(F)cc1F)C(=O)NC1C2CC3CC(C2)CC1C3` (stereo not drawn) [compound 58, N-(adamantane-2-yl)-2-methyl-2-(2,4-difluorophenylsulfonamido)propanamide], for which the IC50 in test [1] is 0.199 µM; in test [2] it was 0.621 µM.
The corresponding values for `CCN(C(C)(C)C(=O)NC1C2CC3CC1CC(C(N)=O)(C3)C2)S(=O)(=O)c1cccc(Cl)c1Cl` (stereo not drawn) [compound 212] are 0.024 µM and 0.191 µM.
Consider `Cc1c(Cl)cccc1S(=O)(=O)N(C)C(C)(C)C(=O)NC1C2CC3CC1CC(C(N)=O)(C3)C2` (stereo not drawn) [compound 191, N-4-(2-(2-methyl-3-chloro-N-methylphenylsulfonamido)-2-methylpropanamido)adamantane-1-carboxyamide], for which the IC50 in test [1] amounted to 0.009 µM; in test [2] it was 0.006 µM.
The corresponding values for `NC(=O)C12CC3CC(C1)C(NC(=O)C1(NS(=O)(=O)c4c(Cl)cccc4Cl)CCCCC1)C(C3)C2` (stereo not drawn) [compound 186, N-4-(1-(2,6-dichlorophenylsulfonamido)cyclohexanecarboxyamido)adamantane-1-carboxyamide] are 0.012 µM and 0.005 µM.
The corresponding values for `Cc1ccc(S(=O)(=O)NC2(C(=O)NC3C4CC5CC3CC(C(N)=O)(C5)C4)CCC2)cc1F` (stereo not drawn) [compound 151, N-4-(1-(3-fluoro-4-methylphenylsulfonamido)cyclobutanecarboxyamido)adamantane-1-carboxyamide] are 0.182 µM and 0.062 µM.
As to `NC(=O)C12CC3CC(C1)C(NC(=O)C1(NS(=O)(=O)c4cccc(Cl)c4Cl)CC1)C(C3)C2` (stereo not drawn) [compound 136, N-4-(1-(2,3-dichlorophenylsulfonamido)cyclopropanecarboxyamido)adamantane-1-carboxyamide], the values for the IC50 in test [1] and in test [2] were 0.009 µM and 0.028 µM, respectively.

As a reminder, the IC50 is the concentration needed to halve the response being measured. Low readings indicate greater potency, high ones weaker potency.
